The record followed here is ChEMBL document CHEMBL1133224, “New ratiometric fluorescent calcium indicators with moderately attenuated binding affinities” (Bioorg Med Chem Lett, 2000).

Each structure is given as a SMILES string.

The nature of this assay: Calcium binding affinity (fluorescent calcium probe) expressed in terms of dissociation constant.
Take `O=C(O)CN(CC(=O)O)c1ccc(F)cc1OCCOc1cc(-c2cc3ccc(C(=O)O)cc3[nH]2)ccc1N(CC(=O)O)CC(=O)O`: the Kd (in general, the equilibrium constant for the complex coming apart) was 470 nM.
The figure for `O=C(O)CN(CC(=O)O)c1cc(F)ccc1OCCOc1cc2cc(-c3ncc(C(=O)O)o3)oc2cc1N(CC(=O)O)CC(=O)O` is 770 nM.
The figure for `Cc1ccc(N(CC(=O)O)CC(=O)O)c(OCCOc2cc(-c3nc4cc(C(F)(F)F)ccc4s3)ccc2N(CC(=O)O)CC(=O)O)c1` is 660 nM; for `O=C(O)CN(CC(=O)O)c1cc2oc(-c3ncc(C(=O)O)o3)cc2cc1OCCOc1c(F)cccc1N(CC(=O)O)CC(=O)O` it is 5300 nM.
The figure for `O=C(O)CN(CC(=O)O)c1ccc(Cl)cc1OCCOc1cc2cc(-c3ncc(C(=O)O)o3)oc2cc1N(CC(=O)O)CC(=O)O` is 400 nM; for `O=C(O)CN(CC(=O)O)c1ccc(F)cc1OCCOc1cc(-c2nc3cc(C(F)(F)F)ccc3s2)ccc1N(CC(=O)O)CC(=O)O` it is 1400 nM; for `O=C(O)CN(CC(=O)O)c1ccc(F)cc1OCCOc1cc2cc(-c3ncc(C(=O)O)o3)oc2cc1N(CC(=O)O)CC(=O)O` it is 400 nM.
In the case of `Cc1ccc(N(CC(=O)O)CC(=O)O)c(OCCOc2cc3cc(-c4ncc(C(=O)O)o4)oc3cc2N(CC(=O)O)CC(=O)O)c1`, the Kd turned out to be 140 nM.
Take `Cc1ccc(N(CC(=O)O)CC(=O)O)c(OCCOc2cc(-c3cc4ccc(C(=O)O)cc4[nH]3)ccc2N(CC(=O)O)CC(=O)O)c1`: the Kd worked out at 230 nM.
